Assays:
Experiment in all cases: Bliss excess, mean over the matrix (fraction); higher = more synergy
[1] = system: 8305C (Thyroid Gland Carcinoma)
Outline: (§1)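 Cell lines grown in DMEM/F12 or RPMI with 10% FBS were plated in 1536-well plates and held 24 hours at 37°C, 5% CO2 before 72 hours of exposure to two-drug dose matrices, with DMSO typically at 0.2%. CellTiter-Glo 2.0 luminescence gave viability, which was converted to inhibition. Vehicle wells were set to 0 and blank wells to 1. Combination Emax is the second-highest inhibition in the matrix, and Bliss excess is the observed combination effect minus the expected EA + EB − EA·EB, where EA and EB are the single-agent effects.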

[2] = system: CAPAN-1 (Pancreatic Carcinoma)
Outline: as §1

[3] = system: EN (Endometrial Carcinoma)
Outline: as §1

[4] = system: HARA (Squamous Cell Lung Carcinoma)
Outline: as §1

[5] = system: HDLM-2 (Hodgkin's Lymphoma)
Outline: as §1

[6] = system: HMV-II (Melanoma)
Outline: as §1

[7] = system: HO-1-u-1 (Oral Cavity Carcinoma)
Outline: as §1

[8] = system: Hs-633T (Other Solid Carcinomas)
Outline: as §1

[9] = system: LU-139 (Small Cell Lung Carcinoma)
Outline: as §1

[10] = system: NB14 (Neuroblastoma)
Outline: as §1

[11] = system: NCI-H2461 (Mesothelioma)
Outline: as §1

[12] = system: NCI-H28 (Mesothelioma)
Outline: as §1

[13] = system: NCI-H69 (Small Cell Lung Carcinoma)
Outline: as §1

[14] = system: OC-314 (Ovarian Carcinoma)
Outline: as §1

[15] = system: PCI-30 (Head and Neck Carcinoma)
Outline: as §1

[16] = system: RKO (Colorectal Carcinoma)
Outline: as §1

[17] = system: RT-112 (Bladder Carcinoma)
Outline: as §1

[18] = system: SK-OV-3 (Ovarian Carcinoma)
Outline: as §1

[19] = system: SUP-T1 (T-Lymphoblastic Leukemia)
Outline: as §1

[20] = system: SW1116 (Colorectal Carcinoma)
Outline: as §1

| Structure (SMILES) | Bliss excess [1] | Bliss excess [2] | Bliss excess [3] | Bliss excess [4] | Bliss excess [5] | Bliss excess [6] | Bliss excess [7] | Bliss excess [8] | Bliss excess [9] | Bliss excess [10] | Bliss excess [11] | Bliss excess [12] | Bliss excess [13] | Bliss excess [14] | Bliss excess [15] | Bliss excess [16] | Bliss excess [17] | Bliss excess [18] | Bliss excess [19] | Bliss excess [20] |
| --- | --- | --- | --- | --- | --- | --- | --- | --- | --- | --- | --- | --- | --- | --- | --- | --- | --- | --- | --- | --- |
| N#Cc1cnc(Nc2cc(NC[C@H]3CNCCO3)c(C(F)(F)F)cn2)cn1 [SRA737] + C=CCn1c(=O)c2cnc(Nc3ccc(N4CCN(C)CC4)cc3)nc2n1-c1cccc(C(C)(C)O)n1 [AZD1775] (first compound max 10 µM, partner max 1 µM) | 0.0356 | -0.0663 | 0.0422 | 0.0442 | -0.0363 | 0.0015 | 0.0809 | 0.0888 | -0.0015 | 0.0644 | 0.0428 | 0.0829 | 0.0231 | 0.165 | 0.116 | 0.0536 | 0.107 | -0.0357 | -0.0003 | -0.0119 |
| N#Cc1cnc(Nc2cc(NC[C@H]3CNCCO3)c(C(F)(F)F)cn2)cn1 [SRA737] + O=c1[nH]cc(F)c(=O)[nH]1 [5-Fluorouracil] (first compound max 10 µM, 7x7, partner max 20 µM) | -0.0326 | 0.0479 | -0.0338 | -0.0379 | 0.0758 | -0.0542 | -0.0774 | -0.0246 | 0.0169 | 0.0321 | -0.0256 | -0.0043 | -0.0461 | 0.114 | 0.0058 | 0.0048 | 0.0881 | -0.0597 | 0.0112 | -0.033 |
| CC1(C)CCC(CN2CCN(c3ccc(C(=O)NS(=O)(=O)c4ccc(NCC5CCOCC5)c([N+](=O)[O-])c4)c(Oc4cnc5[nH]ccc5c4)c3)CC2)=C(c2ccc(Cl)cc2)C1 [Venetoclax] + CS(=O)(=O)CCNCc1ccc(-c2ccc3ncnc(Nc4ccc(OCc5cccc(F)c5)c(Cl)c4)c3c2)o1 [Lapatinib] (first compound max 1 µM, 7x7, partner max 10 µM) | -0.0112 | -0.0262 | -0.0492 | -0.02 | 0.0315 | -0.045 | 0.0094 | -0.0041 | -0.0061 | 0.0606 | -0.04 | -0.0426 | 0.0391 | 0.0051 | -0.0457 | -0.0366 | -0.0371 | -0.0032 | -0.0249 | -0.0129 |
| Cc1c2c(nn1C)CSCc1cc(n(C)n1)CSc1cc(c3ccccc3c1)OCCCc1c(C(=O)O)n(C)c3c-2c(Cl)ccc13 [AZD5991] + Nc1ccn([C@@H]2O[C@H](CO)[C@@H](O)C2(F)F)c(=O)n1 [Gemcitabine] (first compound max 1 µM, 7x7, partner max 0.3 µM) | -0.121 | -0.0092 | -0.0535 | -0.0107 | 0.0014 | 0.0013 | 0.0217 | -0.0611 | -0.0133 | -0.0213 | -0.0432 | -0.061 | -0.0178 | -0.0084 | -0.0531 | -0.0368 | 0.0012 | -0.0401 | -0.0332 | -0.0213 |
| C[C@@H](Oc1cc(-c2cnn(C3CCNCC3)c2)cnc1N)c1c(Cl)ccc(F)c1Cl [Crizotinib] + CC1=C(C(=CC=C1)Cl)NC(=O)C2=CN=C(S2)NC3=CC(=NC(=N3)C)N4CCN(CC4)CCO [Dasatinib] (first compound max 10 µM, 7x7, partner max 2 µM) | 0.0122 | -0.0481 | -0.0798 | 0.0526 | -0.0228 | -0.104 | -0.0488 | 0.0646 | -0.0489 | -0.0123 | -0.0186 | 0.0073 | 0.0403 | 0.032 | 0.0685 | 0.0106 | 0.0179 | 0.0301 | -0.009 | 0.0159 |
| C[C@@H](Nc1cc(F)cc(F)c1)c1cc(C(=O)N(C)C)cc2c(=O)cc(N3CCOCC3)oc12 [AZD8186] + CC(=O)c1c(C)c2cnc(Nc3ccc(N4CCNCC4)cn3)nc2n(C2CCCC2)c1=O [Palbociclib] (first compound max 10 µM, 7x7, partner max 10 µM) | 0.0133 | -0.0559 | -0.0262 | 0.0281 | 0.0121 | 0.0265 | 0.0138 | 0.05 | -0.025 | 0.075 | -0.0113 | -0.0333 | 0.0121 | 0.0774 | 0.0121 | 0.0559 | 0.0396 | -0.0454 | -0.0616 | -0.0352 |
| N#Cc1cnc(Nc2cc(NC[C@H]3CNCCO3)c(C(F)(F)F)cn2)cn1 [SRA737] + Nc1ccn([C@@H]2O[C@H](CO)[C@@H](O)C2(F)F)c(=O)n1 [Gemcitabine] (first compound max 10 µM, 7x7, partner max 0.3 µM) | -0.0158 | -0.0582 | -0.0331 | -0.0013 | 0.0526 | -0.0122 | 0.0492 | 0.0301 | 0.0091 | 0.0218 | -0.0309 | 0.0118 | -0.0077 | 0.108 | -0.0288 | -0.0179 | 0.178 | 0.0128 | -0.0658 | 0.0727 |
| C[C@@H]1COCCN1c1cc(C2([S@](C)(=N)=O)CC2)nc(-c2ccnc3[nH]ccc23)n1 [AZD6738] + C1CC(C1)(C(=O)[O-])C(=O)[O-].N.N.[Pt+2] [Carboplatin] (first compound max 10 µM, 7x7, partner max 10 µM) | -0.046 | -0.0624 | -0.0335 | -0.0226 | 0.0001 | -0.0067 | -0.074 | -0.0264 | 0.0013 | -0.0044 | -0.05 | -0.0606 | -0.032 | -0.03 | -0.0362 | -0.0594 | -0.0217 | -0.0788 | -0.0298 | -0.0483 |
| Cc1c2c(nn1C)CSCc1cc(n(C)n1)CSc1cc(c3ccccc3c1)OCCCc1c(C(=O)O)n(C)c3c-2c(Cl)ccc13 [AZD5991] + CS(=O)(=O)CCNCc1ccc(-c2ccc3ncnc(Nc4ccc(OCc5cccc(F)c5)c(Cl)c4)c3c2)o1 [Lapatinib] (first compound max 1 µM, 7x7, partner max 10 µM) | -0.042 | -0.0147 | -0.0129 | 0.0632 | 0.0262 | -0.0587 | 0.0293 | -0.008 | -0.0068 | 0.0335 | -0.0273 | 0.0147 | -0.0745 | 0.0453 | 0.0446 | 0.0196 | 0.0426 | 0.0591 | -0.0863 | -0.0369 |
| CN(CCO)CC[C@H](CSc1ccccc1)Nc1ccc(S(=O)(=O)NC(=O)c2ccc(N3CCC([C@@H](O)c4ccccc4-c4ccc(Cl)cc4)CC3)cc2)cc1S(=O)(=O)C(F)(F)F [AZD4320] + CC(=O)O[C@H]1C(=O)[C@@]2(C)[C@H]([C@H](OC(=O)c3ccccc3)[C@]3(O)C[C@H](OC(=O)[C@H](O)[C@@H](NC(=O)c4ccccc4)c4ccccc4)C(C)=C1C3(C)C)[C@]1(OC(C)=O)CO[C@@H]1C[C@@H]2O [Paclitaxel] (first compound max 1 µM, 7x7, partner max 3 µM) | 0.0435 | 0.0823 | 0.068 | 0.0253 | 0.0159 | 0.101 | 0.254 | 0.0124 | 0.0242 | 0.0064 | 0.0571 | 0.0394 | 0.0089 | 0.0084 | 0.177 | 0.0012 | 0.0111 | 0.254 | -0.024 | -0.101 |
| CN(CCO)CC[C@H](CSc1ccccc1)Nc1ccc(S(=O)(=O)NC(=O)c2ccc(N3CCC([C@@H](O)c4ccccc4-c4ccc(Cl)cc4)CC3)cc2)cc1S(=O)(=O)C(F)(F)F [AZD4320] + CS(=O)(=O)CCNCc1ccc(-c2ccc3ncnc(Nc4ccc(OCc5cccc(F)c5)c(Cl)c4)c3c2)o1 [Lapatinib] (first compound max 1 µM, 7x7, partner max 10 µM) | -0.0526 | -0.021 | -0.0532 | 0.027 | -0.0018 | -0.0663 | 0.0591 | -0.0023 | 0.0054 | 0.0356 | 0.0115 | 0.0075 | 0.0363 | 0.0535 | 0.0067 | 0.0405 | 0.0152 | -0.0007 | 0.0226 | 0.0117 |
| Cc1c2c(nn1C)CSCc1cc(n(C)n1)CSc1cc(c3ccccc3c1)OCCCc1c(C(=O)O)n(C)c3c-2c(Cl)ccc13 [AZD5991] + CC(=O)O[C@H]1C(=O)[C@@]2(C)[C@H]([C@H](OC(=O)c3ccccc3)[C@]3(O)C[C@H](OC(=O)[C@H](O)[C@@H](NC(=O)c4ccccc4)c4ccccc4)C(C)=C1C3(C)C)[C@]1(OC(C)=O)CO[C@@H]1C[C@@H]2O [Paclitaxel] (first compound max 1 µM, 7x7, partner max 3 µM) | -0.0118 | -0.0006 | 0.149 | -0.003 | 0.0128 | 0.0547 | 0.214 | 0.005 | -0.0361 | -0.0212 | -0.0417 | -0.0549 | -0.0504 | -0.0078 | 0.115 | 0.0203 | 0.0162 | -0.028 | -0.0847 | -0.0379 |
| CN(CCO)CC[C@H](CSc1ccccc1)Nc1ccc(S(=O)(=O)NC(=O)c2ccc(N3CCC([C@@H](O)c4ccccc4-c4ccc(Cl)cc4)CC3)cc2)cc1S(=O)(=O)C(F)(F)F [AZD4320] + C[C@@H](Nc1cc(F)cc(F)c1)c1cc(C(=O)N(C)C)cc2c(=O)cc(N3CCOCC3)oc12 [AZD8186] (first compound max 1 µM, 7x7, partner max 3 µM) | 0.0676 | -0.0107 | -0.0377 | 0.0233 | 0.0434 | -0.0397 | -0.0242 | 0.0082 | -0.0107 | 0.0025 | -0.0052 | 0.0474 | -0.0208 | 0.0075 | -0.0503 | -0.0164 | 0.0735 | 0.0008 | -0.0192 | 0.0353 |
| C=CCn1c(=O)c2cnc(Nc3ccc(N4CCN(C)CC4)cc3)nc2n1-c1cccc(C(C)(C)O)n1 [AZD1775] + Nc1ccn([C@@H]2O[C@H](CO)[C@@H](O)C2(F)F)c(=O)n1 [Gemcitabine] (first compound max 1 µM, partner max 0.3 µM) | -0.0524 | -0.0588 | -0.0552 | 0.0187 | -0.0627 | -0.0355 | -0.0446 | 0.0094 | -0.0304 | – | -0.0446 | -0.0576 | -0.0754 | 0.0576 | 0.0252 | -0.0367 | 0.148 | -0.0635 | -0.047 | -0.0077 |

— the supplement of paper PMC11061612
